Experimental findings from patent US11548946B2, “Carrier-PD-L1 binding agent compositions for treating cancers” (Mayo Foundation for Medical Education and Research, priority 2016, dated 2023) are described below.

pKd: −log10 of the molar value.

One assay has as its target T1, CD20 (Homo sapiens, UniProt P11836).
T1 construct: CD20 positive Daudi lymphoma cells; endogenous in cells; host or cells: Daudi lymphoma cells
T1 sequence (P11836 1-297): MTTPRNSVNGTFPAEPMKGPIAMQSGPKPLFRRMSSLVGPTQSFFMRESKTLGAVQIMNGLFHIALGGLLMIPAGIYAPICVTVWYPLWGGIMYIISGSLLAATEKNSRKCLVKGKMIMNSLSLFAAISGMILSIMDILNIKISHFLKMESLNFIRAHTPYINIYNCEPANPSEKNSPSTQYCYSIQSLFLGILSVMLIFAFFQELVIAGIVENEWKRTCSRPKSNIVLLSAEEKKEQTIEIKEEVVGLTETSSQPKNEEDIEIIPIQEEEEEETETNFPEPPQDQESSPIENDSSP
Briefly: Flow cytometry: blocking of fluorescent anti-CD20 labeling of Daudi cells. It counts as cell-based. The note with it: CD20 positive Daudi lymphoma cells pretreated prior to CD20 labeling. The text has this:
FIGS. 1A-1F depicts the results of an experiment in which CD20 positive Daudi lymphoma cells were labeled with fluorescent tagged anti-human CD20 or isotype matched control in panels F and A, respectively, and analyzed by flow cytometry. In the other panels, the Daudi cells were pretreated with ABRAXANE® (ABX; FIG. 1B), ABX/rituximab nanoparticles (AR160; FIG. 1C), lyophilized and resuspended AR160 (AR160L; FIG. 1D), or Rituxan (FIG. 1E) prior to CD20 labeling.
CD20 positive Daudi lymphoma cells were labeled with fluorescent tagged anti-human CD20 or isotype matched control in panel F and A, respectively, and analyzed by flow cytometry. In the other panels, the Daudi cells were pretreated with ABX, AR160, AR160L (AR160 lyophilized and resuspended into a solution suitable for injection), or Rituxan prior to CD20 labeling.

For the next assay, the target named is ABX. The assay can be described thus: Biolayer interferometry (BLItz) of biotinylated atezolizumab on streptavidin probes exposed to ABX. The note with it: ABX at 100, 500, 1000 μg/mL in 1×PBS; read-out: Kd (binding affinity between atezolizumab and ABX). The protocol: Biolayer interferometry (BLItz) (Forte Bioscience) was performed using streptavidin probes.
To determine whether atezolizumab and ABX are capable of interacting to form nanoparticle complexes, Biolayer interferometry (BLItz) (Forte Bioscience) was performed using streptavidin probes. 100 ug/ml of biotinylated atezolizumab in 1×PBS was bound to the streptavidin probe. After washing unbound atezolizumab from the probe, the antibody-bound probe was exposed to ABX at concentrations of 100, 500, 1000 μg/mL in 1×PBS. An antibody probe exposed to PBS was used as background and background was subtracted. BLItz software was used to calculate dissociation constants (FIG. 7).
For orientation: BLI is a label-free optical method that tracks binding on a fibre tip over time.

Assay [1] concerns PD-L1 positive C8161 melanoma tumor cells. Briefly: In vivo efficacy in athymic nude mice bearing C8161 melanoma tumors. Conditions: single IV tail vein dose; atezolizumab 18 mg/kg, ABX 45 mg/kg, AA130 18 mg/kg atezolizumab and 45 mg/kg ABX. As for the experimental part: FIGS. 11A-11D show the change in tumor volume over time in mice that were injected with 2×10^6 PD-L1 positive C8161 melanoma tumor cells, then treated by 100 ul IV tail vein injection with saline (FIG. 11A), atezolizumab alone (18 mg/kg; FIG. 11B), ABX alone (45 mg/kg; FIG. 11C) and AA130 (18 mg/kg atezolizumab and 45 mg/kg ABX; FIG. 11D) one time. Tumor growth was monitored 3 times per week. Tumor size was calculated with the equation: (length×width^2)/2.
Kaplan Meier curves were generated using Graph Pad software. The median survival for each group was 14, 13, 16, and 21.5 days for saline, atezolizumab, Abraxane and AA130, respectively. Survival differences between AA130 and all other groups were significant, with p-values of 0.0008 for saline, 0.0015 for atezolizumab, and 0.0113 for ABX.
Athymic nude mice (Harlan Sprague Dawley) were injected with 2×10^6 PD-L1 positive C8161 melanoma tumor cells. The tumors were allowed to grow until about 600 mm^3 and were treated by 100 μl IV tail vein injection with saline, atezolizumab alone (18 mg/kg), ABX alone (45 mg/kg) and AA130 (18 mg/kg atezolizumab and 45 mg/kg ABX) one time (FIGS. 11A-11D). Tumor growth was monitored 3 times/week. Tumor size was calculated with the equation: (length×width^2)/2.
Kaplan Meier curves were generated using Graph Pad software. […]

For orientation: pKd means −log10 of the Kd, conventionally taken in molar units.

As to “Rituxan: rituximab, anti-CD20 antibody used as free antibody control”, the “CD20 binding of fluorescent anti-CD20 antibody after pretreatment” value with CD20 is reported as “specifically blocked”. Regarding “atezolizumab: anti-PD-L1 mAb, humanized monoclonal antibody”, the pKd on ABX was 8.84. In assay [1], the median survival worked out at 13 days.
